Assay results: US20050112260A1, “Monatin tabletop sweetener compositions and methods of making same” (Cargill, Inc., priority 2003, published 2005)
Each block holds one molecule with its values, some of them ahead of it. Residues, ends and D or L forms follow the SMILES beside them.

Experiments:
[1] = Sweetness relative to sucrose, panel of trained sensory evaluators, dose response curve; assay type: in vivo; conditions: slope of dose response curve at 8% sucrose equivalence value (SEV)
Experimental: One assesses sweetness of a sweetener relative to sucrose by using a panel of trained sensory evaluators experienced in the sweetness estimation procedure. All samples (in same buffers) are served in duplicate at a temperature of 22° C.±1° C. Test solutions, coded with 3 digit random number codes, are presented individually to panelists, in random order. Sucrose reference standards, ranging from 4.0-10.0% (w/v) sucrose, increasing in steps of 0.5% (w/v) sucrose are also provided. Panelists are asked to estimate sweetness by comparing the sweetness of the test solution to the sucrose standards. […] Using information obtained from the panelists, the sweetness intensity or potency is calculated by dividing sucrose equivalent value (SEV) (e.g., % sucrose) by the % monatin at a particular point in a dose response curve.
The S,S stereoisomer of monatin is approximately 50-200 times sweeter than sucrose by weight. […] As discussed above, the sweetness of the monatin is calculated using experienced sensory evaluators in a sweetness comparison procedure, where a test sweetener solution is matched for sweetness intensity against one of a series of reference solutions. […] The intensity sweetness is calculated as the slope in a dose response curve, where the % sucrose is divided by the % monatin. […]

[2] = Sensory evaluation of table-top sweeteners in coffee and iced tea (panel n=6); assay type: in vivo; conditions: 200 ml serving
Experimental: Monatin table-top formulations, including R,R monatin or R,R monatin/erythritol combinations, were assessed relative to other known sweeteners (aspartame and sucralose) in coffee and iced tea. The key sensory parameters assessed included sweetness quality, aftertaste, bitter taste and its aftertaste. Qualitative evaluation has been carried out.
Standard coffee was used in which to evaluate sweetener performance (Table 7).
Sweeteners were added to coffee at the following concentrations: • Aspartame 0.025% (w/v) • Sucralose 0.0082% (w/v) • R,R monatin* 0.0020, 0.0025, 0.0030% (w/v) plus 1 g maltodextrin • R,R monatin/erythritol 0.0020, 0.0025, 0.0030% (w/v) plus 1 g erythritol (ii) Iced Tea
An ice tea formulation was developed to evaluate sweetener performance (Table 8).
Sweeteners were added to tea at the following concentrations:
The evaluation of these coffee and tea drinks was carried out by a small (n=6) panel of experienced sensory evaluators who evaluated the coffee products on one tasting occasion and the tea products on a subsequent occasion.

[3] = Sensory stability of monatin and aspartame at pH 2.5, 3.0, 4.0 at 40° C. (sweetness vs sucrose standards, panel n=8); assay type: physicochemical; conditions: for Rate constant (k; day^−1) of sweetness loss: pseudo-first order assumed
Experimental: The sensory stability of monatin solutions prepared at pH 2.5, 3.0 and 4.0 and stored at 40° C. was monitored for 100 days. Loss of sweetness from these solutions was compared with the losses of sweetness from aspartame solutions prepared and stored under identical conditions.
The sensory stability of monatin (8% SEV, ˜55 ppm, synthetic blend containing approximately 96% of the 2R,4R/2S, 4S enantiometric pair and 4% of the 2R,4S/2S,4R enantiometric pair) in phosphate/citrate buffers having a pH of 2.5, 3.0, and 4.0 was examined after storage at 40° C. The stability of monatin was compared to that of aspartame (400 ppm) in the same buffers. Three sucrose reference solutions were prepared in the same phosphate/citrate buffers as the monatin and aspartame solutions. All prepared solutions were stored in the dark.
• pH2.5 Phosphoric acid (75% solution) 0.127% (w/v) • Tri-sodium citrate monohydrate 0.005% (w/v) • pH3.0 Phosphoric acid (75% solution) 0.092% (w/v) • Tri-sodium citrate monohydrate 0.031% (w/v) • pH4.0 Phosphoric acid (75% solution) 0.071% (w/v) • Tri-sodium citrate monohydrate 0.047% (w/v)
The sweetness of each sweetener relative to sucrose was assessed in duplicate by a small panel (n=8) of trained sensory evaluators experienced in the sweetness estimation procedure. All samples (in the same buffers) were served in duplicate at a temperature of 22° C.±1° C. Monatin (test) solutions, coded with 3 digit random number codes were presented individually to panelists, in random order. Sucrose reference standards, ranging from 4.0-10.0% (w/v) sucrose, increasing in steps of 0.5% (w/v) sucrose were also provided. Panelists were asked to estimate sweetness by comparing the sweetness of the test solution to the sucrose standards. This was carried out by taking 3 sips of the test solution, followed by a sip of water, followed by 3 sips of sucrose standard followed by a sip of water, etc. Panelists were encouraged to estimate the sweetness to one decimal place, e.g., 6.8, 8.5. A five minute rest period was imposed between evaluating the test solutions. Panelists were also asked to rinse well and eat a cracker to reduce any potential carry over effects.
If a pseudo-first order breakdown reaction is assumed, a plot of logn percentage retention versus time (logn% RTN v. t) allows estimation of the half-life (t½) and rate constant (k) of sweetness loss under any given set of conditions. In so doing, the kinetics of monatin and aspartame sweetness loss may be summarized as follows in Table 13.

[4] = pH 2.5, 40° C., day 1, aspartame 400 ppm
[5] = pH 2.5, 40° C., day 2, aspartame 400 ppm
[6] = pH 2.5, 40° C., day 3, aspartame 400 ppm
[7] = pH 2.5, 40° C., day 4, aspartame 400 ppm
[8] = pH 2.5, 40° C., day 7, aspartame 400 ppm
[9] = pH 2.5, 40° C., day 8, aspartame 400 ppm
[10] = pH 2.5, 40° C., day 9, aspartame 400 ppm
[11] = pH 2.5, 40° C., day 11, aspartame 400 ppm
[12] = pH 2.5, 40° C., day 50, aspartame 400 ppm
[13] = pH 2.5, 40° C., day 100, aspartame 400 ppm
[14] = pH 3.0, 40° C., day 1, aspartame 400 ppm
[15] = pH 3.0, 40° C., day 2, aspartame 400 ppm
[16] = pH 3.0, 40° C., day 3, aspartame 400 ppm
[17] = pH 3.0, 40° C., day 4, aspartame 400 ppm
[18] = pH 3.0, 40° C., day 7, aspartame 400 ppm
[19] = pH 3.0, 40° C., day 8, aspartame 400 ppm
[20] = pH 3.0, 40° C., day 9, aspartame 400 ppm
[21] = pH 3.0, 40° C., day 11, aspartame 400 ppm
[22] = pH 3.0, 40° C., day 50, aspartame 400 ppm
[23] = pH 3.0, 40° C., day 100, aspartame 400 ppm
[24] = pH 4.0, 40° C., day 3, aspartame 400 ppm
[25] = pH 4.0, 40° C., day 8, aspartame 400 ppm
[26] = pH 4.0, 40° C., day 11, aspartame 400 ppm
[27] = pH 4.0, 40° C., day 17, aspartame 400 ppm
[28] = pH 4.0, 40° C., day 24, aspartame 400 ppm
[29] = pH 4.0, 40° C., day 50, aspartame 400 ppm
[30] = pH 4.0, 40° C., day 100, aspartame 400 ppm

SMILES: N[C@H](C[C@](O)(Cc1c[nH]c2ccccc12)C(=O)O)C(=O)O [R,R monatin]
sweetness compared to sucrose by weight [1]: 2000-2400 times sweeter than sucrose by weight

SMILES: NC(CC(O)(Cc1c[nH]c2ccccc12)C(=O)O)C(=O)O (centres unmarked) [S,S monatin]
sweetness compared to sucrose by weight [1]: 50-200 times sweeter than sucrose by weight

Retention of Aspartame Sweetness (%) [3, 4]: 94.0%
Retention of Aspartame Sweetness (%) [3, 5]: 92.6%
Retention of Aspartame Sweetness (%) [3, 6]: 89.9%
Retention of Aspartame Sweetness (%) [3, 7]: 85.7%
Retention of Aspartame Sweetness (%) [3, 8]: 81.9%
Retention of Aspartame Sweetness (%) [3, 9]: 81.5%
Retention of Aspartame Sweetness (%) [3, 10]: 81.3%
Retention of Aspartame Sweetness (%) [3, 11]: 79.8%
Retention of Aspartame Sweetness (%) [3, 12]: 57.1%
Retention of Aspartame Sweetness (%) [3, 13]: 10.9%
Rate constant (k; day^−1) of sweetness loss ([3]; pH 2.5, 40° C.): 0.013 day⁻¹
Sweetness Retained (%) ([3]; pH 2.5, 100 days storage at 40° C.): 11%
Retention of Aspartame Sweetness (%) [3, 14]: 96.5%
Retention of Aspartame Sweetness (%) [3, 15]: 96.1%
Retention of Aspartame Sweetness (%) [3, 16]: 92.3%
Retention of Aspartame Sweetness (%) [3, 17]: 89.9%
Retention of Aspartame Sweetness (%) [3, 18]: 86.3%
Retention of Aspartame Sweetness (%) [3, 19]: 82.9%
Retention of Aspartame Sweetness (%) [3, 20]: 83.1%
Retention of Aspartame Sweetness (%) [3, 21]: 81.5%
Retention of Aspartame Sweetness (%) [3, 22]: 65.9%
Retention of Aspartame Sweetness (%) [3, 23]: 30.8%
Rate constant (k; day^−1) of sweetness loss ([3]; pH 3.0, 40° C.): 0.009 day⁻¹
Sweetness Retained (%) ([3]; pH 3.0, 100 days storage at 40° C.): 31%
Retention of Aspartame Sweetness (%) [3, 24]: 95.1%
Retention of Aspartame Sweetness (%) [3, 25]: 87.8%
Retention of Aspartame Sweetness (%) [3, 26]: 84.8%
Retention of Aspartame Sweetness (%) [3, 27]: 81.0%
Retention of Aspartame Sweetness (%) [3, 28]: 82.4%
Retention of Aspartame Sweetness (%) [3, 29]: 74.5%
Retention of Aspartame Sweetness (%) [3, 30]: 57.7%
Rate constant (k; day^−1) of sweetness loss ([3]; pH 4.0, 40° C.): 0.005 day⁻¹
Sweetness Retained (%) ([3]; pH 4.0, 100 days storage at 40° C.): 58%
SMILES: COC(=O)[C@H](Cc1ccccc1)NC(=O)[C@@H](N)CC(=O)O [Aspartame, reference compound] (H-Asp-Phe-OMe)
Comments (sensory evaluation) ([2]; Coffee, Aspartame 250 ppm): Balanced sweetness profile. Very low level
SEV Aspartame (% sucrose) ([3]; pH 2.5, 40° C., day 0, aspartame 400 ppm): 7.34 % sucrose
SEV Aspartame (% sucrose) [3, 4]: 6.90 % sucrose
SEV Aspartame (% sucrose) [3, 5]: 6.80 % sucrose
SEV Aspartame (% sucrose) [3, 6]: 6.60 % sucrose
SEV Aspartame (% sucrose) [3, 7]: 6.29 % sucrose
SEV Aspartame (% sucrose) [3, 8]: 6.01 % sucrose
SEV Aspartame (% sucrose) [3, 9]: 5.98 % sucrose
SEV Aspartame (% sucrose) [3, 10]: 5.97 % sucrose
SEV Aspartame (% sucrose) [3, 11]: 5.86 % sucrose
SEV Aspartame (% sucrose) [3, 12]: 4.19 % sucrose
SEV Aspartame (% sucrose) [3, 13]: 0.80 % sucrose
SEV Aspartame (% sucrose) ([3]; pH 3.0, 40° C., day 0, aspartame 400 ppm): 7.15 % sucrose
SEV Aspartame (% sucrose) [3, 14]: 6.90 % sucrose
SEV Aspartame (% sucrose) [3, 15]: 6.87 % sucrose
SEV Aspartame (% sucrose) [3, 16]: 6.60 % sucrose
SEV Aspartame (% sucrose) [3, 17]: 6.43 % sucrose
SEV Aspartame (% sucrose) [3, 18]: 6.17 % sucrose
SEV Aspartame (% sucrose) [3, 19]: 5.93 % sucrose
SEV Aspartame (% sucrose) [3, 20]: 5.94 % sucrose
SEV Aspartame (% sucrose) [3, 21]: 5.83 % sucrose
SEV Aspartame (% sucrose) [3, 22]: 4.71 % sucrose
SEV Aspartame (% sucrose) [3, 23]: 2.20 % sucrose
SEV Aspartame (% sucrose) ([3]; pH 4.0, 40° C., day 0, aspartame 400 ppm): 7.10 % sucrose
SEV Aspartame (% sucrose) [3, 24]: 6.75 % sucrose
SEV Aspartame (% sucrose) [3, 25]: 6.23 % sucrose
SEV Aspartame (% sucrose) [3, 26]: 6.02 % sucrose
SEV Aspartame (% sucrose) [3, 27]: 5.75 % sucrose
SEV Aspartame (% sucrose) [3, 28]: 5.85 % sucrose
SEV Aspartame (% sucrose) [3, 29]: 5.29 % sucrose
SEV Aspartame (% sucrose) [3, 30]: 4.10 % sucrose

SMILES: OC[C@H]1O[C@H](O[C@]2(CCl)O[C@H](CCl)[C@@H](O)[C@@H]2O)[C@H](O)[C@@H](O)[C@H]1Cl [Sucralose]
Comments (sensory evaluation) ([2]; Coffee, Sucralose 82 ppm): Slow sweetness onset allows stronger
Comments (sensory evaluation) ([2]; Iced Tea, Sucralose 170 ppm): Delay in sweetness onset means first
